Data from the supplement of paper PMC10627819.

Tests used:
Assay in all cases: Bliss interaction score (quartile over a dose matrix) (fitness difference); higher = more antagonism (negative = synergy)
B. subtilis 168 = test system: B. subtilis 168
Summary of the method: (§1)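 Quartiles of the Bliss score were taken over technical, biological and donor/recipient replicates. That score is observed fitness minus the product of the single-drug fitness values, which were inferred from combination data. Fitness itself is OD595 at entry into stationary phase divided by the plate's robust no-drug mean, with a cap at 1.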

S. aureus DSM 20231 = test system: S. aureus DSM 20231
Summary of the method: as §1

S. aureus Newman = test system: S. aureus Newman
Summary of the method: as §1

S. pneumoniae D39V = test system: S. pneumoniae D39V
Summary of the method: as §1
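Also: first quartile when negative (synergy) and third quartile when positive (antagonism).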

| Structure (SMILES) | Bliss interaction score (B. subtilis 168) | Bliss interaction score (S. aureus DSM 20231) | Bliss interaction score (S. aureus Newman) | Bliss interaction score (S. pneumoniae D39V) | Bliss interaction score (B. subtilis 168; main component drawn) | Bliss interaction score (S. aureus DSM 20231; main component drawn) | Bliss interaction score (S. aureus Newman; main component drawn) | Bliss interaction score (S. pneumoniae D39V; main component drawn) |
| --- | --- | --- | --- | --- | --- | --- | --- | --- |
| CN[C@H](CC(C)C)C(=O)N[C@H]1C(=O)N[C@@H](CC(N)=O)C(=O)N[C@H]2C(=O)N[C@H]3C(=O)N[C@H](C(=O)N[C@H](C(=O)O)c4cc(O)cc(O)c4-c4cc3ccc4O)[C@H](O[C@H]3C[C@](C)(N)[C@@H](O)[C@H](C)O3)c3ccc(c(Cl)c3)Oc3cc2cc(c3O[C@@H]2O[C@H](CO)[C@@H](O)[C@H](O)[C@H]2O[C@H]2C[C@](C)(NCc3ccc(-c4ccc(Cl)cc4)cc3)[C@@H](O)[C@H](C)O2)Oc2ccc(cc2Cl)[C@H]1O [Oritavancin] + CC1(C)S[C@@H]2[C@H](NC(=O)Cc3ccccc3)C(=O)N2[C@H]1C(=O)O [PenicillinG] | 0.0358 | 0.0356 | -0.066 | 0.0412 |  |  |  |  |
| CN[C@H](CC(C)C)C(=O)N[C@H]1C(=O)N[C@@H](CC(N)=O)C(=O)N[C@H]2C(=O)N[C@H]3C(=O)N[C@H](C(=O)N[C@H](C(=O)O)c4cc(O)cc(O)c4-c4cc3ccc4O)[C@H](O[C@H]3C[C@](C)(N)[C@@H](O)[C@H](C)O3)c3ccc(c(Cl)c3)Oc3cc2cc(c3O[C@@H]2O[C@H](CO)[C@@H](O)[C@H](O)[C@H]2O[C@H]2C[C@](C)(NCc3ccc(-c4ccc(Cl)cc4)cc3)[C@@H](O)[C@H](C)O2)Oc2ccc(cc2Cl)[C@H]1O [Oritavancin] + CC1=C\[C@@H](O)CC(=O)Cc2nc(co2)C(=O)N2CCC=C2C(=O)O[C@H](C(C)C)[C@H](C)/C=C/C(=O)NC\C=C\1 [Virginiamycin M1] | -0.0178 | -0.0348 | -0.0713 | 0.0739 |  |  |  |  |
| CN[C@H](CC(C)C)C(=O)N[C@H]1C(=O)N[C@@H](CC(N)=O)C(=O)N[C@H]2C(=O)N[C@H]3C(=O)N[C@H](C(=O)N[C@H](C(=O)O)c4cc(O)cc(O)c4-c4cc3ccc4O)[C@H](O[C@H]3C[C@](C)(N)[C@@H](O)[C@H](C)O3)c3ccc(c(Cl)c3)Oc3cc2cc(c3O[C@@H]2O[C@H](CO)[C@@H](O)[C@H](O)[C@H]2O[C@H]2C[C@](C)(NCc3ccc(-c4ccc(Cl)cc4)cc3)[C@@H](O)[C@H](C)O2)Oc2ccc(cc2Cl)[C@H]1O [Oritavancin] + CCCCCCCCCC(=O)N[C@@H]1[C@H]([C@@H]([C@H](O[C@H]1OC2=C3C=C4C=C2OC5=C(C=C(C=C5)[C@H]([C@H]6C(=O)N[C@@H](C7=C(C(=CC(=C7)O)OC8[C@H]([C@H]([C@@H]([C@H](O8)CO)O)O)O)C9=C(C=CC(=C9)[C@H](C(=O)N6)NC(=O)[C@@H]4NC(=O)[C@@H]1C2=CC(=CC(=C2)OC2=C(C=CC(=C2)[C@H](C(=O)N[C@H](CC2=CC(=C(O3)C=C2)Cl)C(=O)N1)N)O)O)O)C(=O)O)O[C@H]1[C@@H]([C@H]([C@@H]([C@H](O1)CO)O)O)NC(=O)C)Cl)CO)O)O [Teicoplanin] |  |  |  |  | -0.0407 | -0.0634 | -0.117 | 0.0813 |
| CN[C@H](CC(C)C)C(=O)N[C@H]1C(=O)N[C@@H](CC(N)=O)C(=O)N[C@H]2C(=O)N[C@H]3C(=O)N[C@H](C(=O)N[C@H](C(=O)O)c4cc(O)cc(O)c4-c4cc3ccc4O)[C@H](O[C@H]3C[C@](C)(N)[C@@H](O)[C@H](C)O3)c3ccc(c(Cl)c3)Oc3cc2cc(c3O[C@@H]2O[C@H](CO)[C@@H](O)[C@H](O)[C@H]2O[C@H]2C[C@](C)(NCc3ccc(-c4ccc(Cl)cc4)cc3)[C@@H](O)[C@H](C)O2)Oc2ccc(cc2Cl)[C@H]1O [Oritavancin] + CCN(CC)CCOC(=O)c1ccc(N)cc1 [Procaine] | -0.0177 | -0.0785 | -0.0513 | -0.0615 |  |  |  |  |
| CN[C@H](CC(C)C)C(=O)N[C@H]1C(=O)N[C@@H](CC(N)=O)C(=O)N[C@H]2C(=O)N[C@H]3C(=O)N[C@H](C(=O)N[C@H](C(=O)O)c4cc(O)cc(O)c4-c4cc3ccc4O)[C@H](O[C@H]3C[C@](C)(N)[C@@H](O)[C@H](C)O3)c3ccc(c(Cl)c3)Oc3cc2cc(c3O[C@@H]2O[C@H](CO)[C@@H](O)[C@H](O)[C@H]2O[C@H]2C[C@](C)(NCc3ccc(-c4ccc(Cl)cc4)cc3)[C@@H](O)[C@H](C)O2)Oc2ccc(cc2Cl)[C@H]1O [Oritavancin] + CC[C@H]1OC(=O)[C@H](C)C(=O)[C@H](C)[C@@H](O[C@@H]2O[C@H](C)C[C@H](N(C)C)[C@H]2O)[C@](C)(OC)C[C@@H](C)C(=O)[C@H](C)[C@H]2N(CCCCn3cnc(-c4cccnc4)c3)C(=O)O[C@]12C [Telithromycin] | 0.0211 | -0.0333 | -0.0486 | 0.0281 |  |  |  |  |
| CN[C@H](CC(C)C)C(=O)N[C@H]1C(=O)N[C@@H](CC(N)=O)C(=O)N[C@H]2C(=O)N[C@H]3C(=O)N[C@H](C(=O)N[C@H](C(=O)O)c4cc(O)cc(O)c4-c4cc3ccc4O)[C@H](O[C@H]3C[C@](C)(N)[C@@H](O)[C@H](C)O3)c3ccc(c(Cl)c3)Oc3cc2cc(c3O[C@@H]2O[C@H](CO)[C@@H](O)[C@H](O)[C@H]2O[C@H]2C[C@](C)(NCc3ccc(-c4ccc(Cl)cc4)cc3)[C@@H](O)[C@H](C)O2)Oc2ccc(cc2Cl)[C@H]1O [Oritavancin] + CN1C2=CC=CC=C2N=C3C1=CC=CC3=O [Pyocyanin] | -0.0238 | -0.047 | -0.105 | -0.0208 |  |  |  |  |
| CN[C@H](CC(C)C)C(=O)N[C@H]1C(=O)N[C@@H](CC(N)=O)C(=O)N[C@H]2C(=O)N[C@H]3C(=O)N[C@H](C(=O)N[C@H](C(=O)O)c4cc(O)cc(O)c4-c4cc3ccc4O)[C@H](O[C@H]3C[C@](C)(N)[C@@H](O)[C@H](C)O3)c3ccc(c(Cl)c3)Oc3cc2cc(c3O[C@@H]2O[C@H](CO)[C@@H](O)[C@H](O)[C@H]2O[C@H]2C[C@](C)(NCc3ccc(-c4ccc(Cl)cc4)cc3)[C@@H](O)[C@H](C)O2)Oc2ccc(cc2Cl)[C@H]1O [Oritavancin] + CN(C)c1cc(NC(=O)CNC(C)(C)C)c(O)c2c1C[C@H]1C[C@H]3[C@H](N(C)C)C(O)=C(C(N)=O)C(=O)[C@@]3(O)C(O)=C1C2=O [Tigecycline] | -0.0328 | -0.0305 | -0.0634 | 0.0458 |  |  |  |  |
| CN[C@H](CC(C)C)C(=O)N[C@H]1C(=O)N[C@@H](CC(N)=O)C(=O)N[C@H]2C(=O)N[C@H]3C(=O)N[C@H](C(=O)N[C@H](C(=O)O)c4cc(O)cc(O)c4-c4cc3ccc4O)[C@H](O[C@H]3C[C@](C)(N)[C@@H](O)[C@H](C)O3)c3ccc(c(Cl)c3)Oc3cc2cc(c3O[C@@H]2O[C@H](CO)[C@@H](O)[C@H](O)[C@H]2O[C@H]2C[C@](C)(NCc3ccc(-c4ccc(Cl)cc4)cc3)[C@@H](O)[C@H](C)O2)Oc2ccc(cc2Cl)[C@H]1O [Oritavancin] + CN(N=O)C(=O)N[C@@H](C=O)[C@@H](O)[C@H](O)[C@H](O)CO [Streptozotocin] | -0.0355 | -0.0564 | -0.063 | -0.0337 |  |  |  |  |
| CN[C@H](CC(C)C)C(=O)N[C@H]1C(=O)N[C@@H](CC(N)=O)C(=O)N[C@H]2C(=O)N[C@H]3C(=O)N[C@H](C(=O)N[C@H](C(=O)O)c4cc(O)cc(O)c4-c4cc3ccc4O)[C@H](O[C@H]3C[C@](C)(N)[C@@H](O)[C@H](C)O3)c3ccc(c(Cl)c3)Oc3cc2cc(c3O[C@@H]2O[C@H](CO)[C@@H](O)[C@H](O)[C@H]2O[C@H]2C[C@](C)(NCc3ccc(-c4ccc(Cl)cc4)cc3)[C@@H](O)[C@H](C)O2)Oc2ccc(cc2Cl)[C@H]1O [Oritavancin] + CN[C@@H]1[C@H](O)[C@H](NC)[C@H]2O[C@@]3(O)C(=O)C[C@@H](C)O[C@H]3O[C@@H]2[C@H]1O [Spectinomycin] | -0.0238 | -0.0487 | -0.154 | 0.0219 |  |  |  |  |
| CN[C@H](CC(C)C)C(=O)N[C@H]1C(=O)N[C@@H](CC(N)=O)C(=O)N[C@H]2C(=O)N[C@H]3C(=O)N[C@H](C(=O)N[C@H](C(=O)O)c4cc(O)cc(O)c4-c4cc3ccc4O)[C@H](O[C@H]3C[C@](C)(N)[C@@H](O)[C@H](C)O3)c3ccc(c(Cl)c3)Oc3cc2cc(c3O[C@@H]2O[C@H](CO)[C@@H](O)[C@H](O)[C@H]2O[C@H]2C[C@](C)(NCc3ccc(-c4ccc(Cl)cc4)cc3)[C@@H](O)[C@H](C)O2)Oc2ccc(cc2Cl)[C@H]1O [Oritavancin] + CN[C@@H]1[C@H](O[C@H]2[C@H](O[C@H]3[C@H](O)[C@@H](O)[C@H](N=C(N)N)[C@@H](O)[C@@H]3N=C(N)N)O[C@@H](C)[C@]2(O)C=O)O[C@@H](CO)[C@H](O)[C@H]1O [Streptomycin] | -0.0219 | -0.111 | -0.138 | 0.0462 |  |  |  |  |
